Starred links: 1 amine or outer side, 2 acyl side, 3 side chain; linkers in the order of their positions; H or OH if unused. Positions of bridges follow the written chain, without caps; N, C: chain ends. Residues, ends and D or L forms follow the SMILES beside them. X1 = O=C(C[*:2])Nc1cccc(C(=O)[*:1])c1
Tests used:
human VEGFR2 = target: T1, human VEGFR2 (Homo sapiens, UniProt P35968); test: Binding of cyclic peptide to human VEGFR2 by BLI method (ForteBio); conditions: VEGFR2-Fc fusion immobilized, 30° C., read-out: koff, dissociation rate constant for human VEGFR2
T1 construct: Fc (fusion partner)
Method: (§1) A dissociation constant of binding between the cyclic peptide L1 or BL1 thus synthesized and human VEGFR2 or mouse VEGFR2 was determined by BLI method (ForteBio). A fusion protein of VEGFR2 and Fc was immobilized onto Anti-human IgG Capture Biosensors and the cyclic peptide L1 or BL1 varied in concentration was analyzed. The temperature was set at 30° C.

HUVEC = assay type: cell-based, human; conditions: 24 h
Method: Next, growth inhibiting activity of L1 and BL1 against HUVEC was examined by BrdU method. HUVEC cells were treated for 30 minutes with a cyclic peptide L1 or BL1 varied in concentration and then, co-incubated with the cyclic peptide and 10 ng/mL of VEGF. Twenty four hours later, the cells were labeled with BrdU for 4 hours in the presence of the cyclic peptide and VEGF. Then, the resulting cells were fixed, stained with a peroxidase-conjugated anti-BrdU antibody, and peroxidase activity was detected using a tetramethylbenzidine color colorimetric substrate. The cells without peptide and VEGF treatments and the cells without only peptide treatment were used as a control.

[1] = system: HUVEC and human skin-derived fibroblasts; test: VEGF-dependent angiogenesis, Kurabo angiogenesis kit (HUVEC and human skin-derived fibroblast co-culture); assay type: cell-based; conditions: 10 μm-L1 administered group; 10 ng/mL VEGF, 11 days, anti-CD31 staining; compared with 50 μM Suramin
Method: Next, angiogenesis kit of Kurabo was used to study the influence of L1 or BL1 on VEGF-dependent angiogenesis. HUVEC and human skin-derived fibroblasts were co-cultured in the presence of 10 ng/mL of VEGF and L1 or BL1 varied in concentration. After culturing at 37° C., supplementation with VEGF and peptide having the same concentration three days, six days, and eight days later, and fixation of the HUVEC cells 11 days later, the resulting cells were stained with an anti-CD31 antibody to visualize them and analyzed by making use of an image analysis service included in the kit. As a control, 50 μM of an angiogenesis inhibitor Suramin was added instead of the peptide.

mouse VEGFR2 = target: T2, mouse VEGFR2 (Mus musculus, UniProt P35918); test: Binding of cyclic peptide to mouse VEGFR2 by BLI method (ForteBio); conditions: VEGFR2-Fc fusion immobilized, 30° C., read-out: koff, dissociation rate constant for mouse VEGFR2
T2 construct: Fc (fusion partner)
Method: as §1

T1 sequence (P35968 20-764 limits assumed): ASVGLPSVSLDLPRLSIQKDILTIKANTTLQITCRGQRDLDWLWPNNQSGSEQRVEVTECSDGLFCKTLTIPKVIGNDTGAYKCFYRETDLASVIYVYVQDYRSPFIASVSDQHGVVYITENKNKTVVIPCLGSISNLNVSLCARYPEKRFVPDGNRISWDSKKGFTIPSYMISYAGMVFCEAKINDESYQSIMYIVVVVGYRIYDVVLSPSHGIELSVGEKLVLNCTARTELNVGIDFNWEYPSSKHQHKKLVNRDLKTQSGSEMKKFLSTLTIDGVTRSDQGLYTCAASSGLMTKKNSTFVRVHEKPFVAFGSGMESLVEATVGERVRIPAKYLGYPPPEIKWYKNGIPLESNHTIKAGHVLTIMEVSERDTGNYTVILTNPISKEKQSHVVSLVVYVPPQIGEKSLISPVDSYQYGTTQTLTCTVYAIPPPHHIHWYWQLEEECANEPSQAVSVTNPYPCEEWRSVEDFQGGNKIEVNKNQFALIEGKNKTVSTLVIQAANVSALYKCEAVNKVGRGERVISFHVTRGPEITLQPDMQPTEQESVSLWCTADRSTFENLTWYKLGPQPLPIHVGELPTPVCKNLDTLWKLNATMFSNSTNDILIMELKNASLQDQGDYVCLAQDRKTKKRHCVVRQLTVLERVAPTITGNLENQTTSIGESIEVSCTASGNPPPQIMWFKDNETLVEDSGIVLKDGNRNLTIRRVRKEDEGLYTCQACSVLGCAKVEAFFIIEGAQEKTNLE
T2 sequence (P35918 20-762 limits assumed): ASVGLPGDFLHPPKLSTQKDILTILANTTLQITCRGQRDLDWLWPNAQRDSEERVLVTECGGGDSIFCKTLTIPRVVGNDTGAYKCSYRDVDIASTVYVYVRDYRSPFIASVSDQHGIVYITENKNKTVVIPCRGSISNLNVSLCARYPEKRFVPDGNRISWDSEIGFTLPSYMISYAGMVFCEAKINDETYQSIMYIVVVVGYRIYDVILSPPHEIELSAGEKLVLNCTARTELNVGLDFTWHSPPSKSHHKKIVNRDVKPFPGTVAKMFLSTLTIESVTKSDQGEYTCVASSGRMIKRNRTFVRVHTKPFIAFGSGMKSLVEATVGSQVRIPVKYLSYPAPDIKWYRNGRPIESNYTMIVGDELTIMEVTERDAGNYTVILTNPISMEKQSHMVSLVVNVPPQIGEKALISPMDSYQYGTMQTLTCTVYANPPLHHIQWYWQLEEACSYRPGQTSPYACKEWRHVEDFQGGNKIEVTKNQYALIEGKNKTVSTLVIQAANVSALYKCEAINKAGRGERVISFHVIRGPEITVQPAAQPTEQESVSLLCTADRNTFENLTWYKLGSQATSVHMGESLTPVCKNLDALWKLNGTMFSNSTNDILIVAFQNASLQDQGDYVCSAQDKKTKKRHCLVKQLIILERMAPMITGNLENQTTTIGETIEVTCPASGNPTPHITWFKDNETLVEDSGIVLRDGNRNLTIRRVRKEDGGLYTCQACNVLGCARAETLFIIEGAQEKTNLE

SMILES	koff (human VEGFR2) [s⁻¹]	IC50 (HUVEC) [nM]	angiogenesis inhibiting effect [1]	koff (mouse VEGFR2) [s⁻¹]
CC[C@H](C)[C@@H]1NC(=O)[C@H](Cc2ccc(O)cc2)NC(=O)[C@H](CC(C)C)NC(=O)CNC(=O)[C@H](CC(N)=O)NC(=O)[C@H](C(C)C)NC(=O)[C@H](Cc2c[nH]c3ccccc23)NC(=O)[C@@H]2CCCN2C(=O)[C@H](CC(=O)O)NC(=O)[C@H]([C@@H](C)O)NC(=O)[C@H](CO)NC(=O)[C@H](C(C)C)NC(=O)[C@H](C(C)C)NC(=O)[C@H](C(C)C)NC(=O)[C@H](Cc2ccccc2)NC(=O)CSC[C@@H](C(=O)NCC(N)=O)NC(=O)[C@H](CC(=O)O)NC1=O [L1, ClAc-L-Phe-Val-Val-Val-Ser-Thr-Asp-Pro-Trp-Val-Asn-Gly-Leu-Tyr-Ile-Asp-Cys]	0.002	60	angiogenesis inhibiting effect stronger than that of Suramin	
CC[C@H](C)[C@@H]1NC(=O)[C@H](Cc2ccccc2)NC(=O)c2cccc(c2)NC(=O)CSC[C@@H](C(=O)NCC(N)=O)NC(=O)[C@H](CCCNC(=N)N)NC(=O)[C@H](CCC(=O)O)NC(=O)[C@H](CC(C)C)NC(=O)[C@H](CO)NC(=O)[C@H]([C@@H](C)CC)NC(=O)[C@@H]2CCCN2C(=O)[C@H](Cc2c[nH]cn2)NC(=O)[C@H](C(C)C)NC(=O)[C@H](CCCCN)NC(=O)[C@H](C(C)C)NC(=O)[C@H](CCCNC(=N)N)NC(=O)[C@H](Cc2ccc(O)cc2)NC(=O)[C@H](Cc2c[nH]cn2)NC(=O)CNC1=O [BL1, MCAB-L-Phe-Ile-Gly-His-Tyr-Arg-Val-Lys-Val-His-Pro-Ile-Ser-Leu-Glu-Arg-Cys] (FIGHYRVKVHPISLERCG-NH2; linker N-17 via X1)	0.0009	60		0.0008

Source: patent US9815867B2, “Peptide for inhibiting vascular endothelial growth factor receptor” (The University of Tokyo, priority 2012, dated 2017)
